No end group written: not given here.
System: T cells specific for the TERT572 peptide
Test: Immunomonitoring: IFNg ELISpot assay on PBMC of vaccinated patients
Assay type: in vivo, human

Vx-001: vaccine composed of two nine-amino-acid peptides, TERT572 (SEQ ID No: 1) and TERT572Y (SEQ ID No: 2), administered separately with adjuvant Montanide ISA51 VG (chain 1 RLFFYRKSV; chain 2 YLFFYRKSV; not fully specified)
Patients who mounted a TERT572 specific immune response (Vx-001 treated patients measured at least at W6, W18 or thereafter (22 of 75 patients)): 29.3% | Frequency of vaccine-induced immune response (Vx-001 treated patients with natural immunity): 15% | Patients who mounted a TERT572 specific immune response (Vx-001 treated patients with non-squamous (NSQ) NSCLC): 36% | Patients who mounted a TERT572 specific immune response (Vx-001 treated patients with squamous (SQ) NSCLC): 13.3% | Frequency of vaccine-induced immune response (Vx-001 treated patients without natural immunity): 36.2%

— patent US20200079819A1, “Use of a Vaccine Targeting a Cryptic Tert Epitope, for Treating Lung Cancer in a HLA-A*0201-Positive Never-Smoker or Light-Former Smoker Patient” (Vaxon Biotech, priority 2017, published 2020)
